Values joined by “and” are separate entries in the source; they are usually repeats but may differ in a detail not shown here. Identical values can stand only once. Some results are limits rather than exact numbers.

For one assay, the target named is T1, Recombinant TDO (Homo sapiens, UniProt P48775).
T1 construct: Recombinant TDO (Seegers, N., et al.) and all other assay components were diluted in TDO reaction buffer
The experiment in a line: Biochemical assay for TDO (NFK GreenScreen). To be noted: 50 nM TDO, 200 μM L-tryptophan. Summed up:
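Recombinant human TDO (50 nM) preincubated with compound 60 min at room temperature in 100 mM NaH2PO4 pH 7.0, 0.02% Tween-20, with ascorbic acid. Reaction then run 15 min with 200 μM L-tryptophan (final), 0.3% DMSO. NFK product detected by NFK Green fluorescence after 3 h at 37° C; IC50 derived.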

The target of another assay is CYP2D6 (Homo sapiens, UniProt P10635). Put plainly: P450-Glo CYP2D6 Luc-IP assay.
Chain of CYP2D6 (P10635 whole entry): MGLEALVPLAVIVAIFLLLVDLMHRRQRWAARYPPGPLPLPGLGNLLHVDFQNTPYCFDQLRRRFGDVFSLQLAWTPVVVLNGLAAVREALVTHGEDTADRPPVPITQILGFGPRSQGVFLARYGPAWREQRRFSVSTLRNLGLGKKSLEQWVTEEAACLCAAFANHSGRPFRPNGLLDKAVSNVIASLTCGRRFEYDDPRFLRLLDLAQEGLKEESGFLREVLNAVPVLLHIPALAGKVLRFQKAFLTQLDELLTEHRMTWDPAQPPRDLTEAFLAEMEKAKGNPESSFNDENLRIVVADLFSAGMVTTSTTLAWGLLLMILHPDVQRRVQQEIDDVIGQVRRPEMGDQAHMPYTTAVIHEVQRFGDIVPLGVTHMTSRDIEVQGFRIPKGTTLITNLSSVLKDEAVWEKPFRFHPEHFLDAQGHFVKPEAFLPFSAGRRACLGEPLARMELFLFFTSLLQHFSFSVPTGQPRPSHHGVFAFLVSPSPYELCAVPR
A further assay concerns the target CYP3A4 (Homo sapiens, UniProt P08684). Put plainly: P450-Glo CYP3A4 luciferin isopropylacetal (Luc-IP) assay.
Assay [1] has as its target T2, TDO in SW48 colorectal carcinoma cells (Homo sapiens, UniProt P48775).
T2 construct: Endogenous expression of TDO has been determined in a variety of cancer cell lines; host or cells: SW48 colorectal carcinoma cells
Put plainly: Cell-based assay for TDO in SW48 colorectal carcinoma cells (NFK GreenScreen). To be noted: 18 hours with L-tryptophan, read-out: IC50 on TDO in cells. How it is done: The biological activity of TDO inhibitors can be measured by applying above detection methods to cells that are treated with test compound. Endogenous expression of TDO has been determined in a variety of cancer cell lines (Pilotte et al.; Seegers, et al.), or TDO can be expressed in cells that lack endogenous TDO by transfection of an expression vector containing TDO cDNA. […] A preferred assay is the cell-based NFK GreenScreen™ assay (Seegers et al, supra), which measures the cellular inhibitory activity of compounds on TDO. […] No. V9920). Cell-Based Assay for TDO The NFK GreenScreen™ assay technology was also used to determine the inhibitory activity of compounds on TDO in SW48 colorectal carcinoma cells (Seegers, N., et al., J. Biol. Screen. 19: 1266; 2014). […] Compounds were dissolved in DMSO and diluted in RPMI 1640. Final DMSO concentration in the assay was 0.4% (v/v). Eight thousand cells per well in 40 μl were seeded in a black 384-well tissue plate (cat. No. 781086; […] To determine NFK levels, 12 μl NFK Green™ (NTRC, Oss, The Netherlands) was added to each well, and the plate was sealed and incubated for 4 hours at 37° C. Fluorescence was measured on an EnVision multimode reader (Perkin Elmer, Waltham, Mass., USA).

Chain of CYP3A4 (P08684 whole entry): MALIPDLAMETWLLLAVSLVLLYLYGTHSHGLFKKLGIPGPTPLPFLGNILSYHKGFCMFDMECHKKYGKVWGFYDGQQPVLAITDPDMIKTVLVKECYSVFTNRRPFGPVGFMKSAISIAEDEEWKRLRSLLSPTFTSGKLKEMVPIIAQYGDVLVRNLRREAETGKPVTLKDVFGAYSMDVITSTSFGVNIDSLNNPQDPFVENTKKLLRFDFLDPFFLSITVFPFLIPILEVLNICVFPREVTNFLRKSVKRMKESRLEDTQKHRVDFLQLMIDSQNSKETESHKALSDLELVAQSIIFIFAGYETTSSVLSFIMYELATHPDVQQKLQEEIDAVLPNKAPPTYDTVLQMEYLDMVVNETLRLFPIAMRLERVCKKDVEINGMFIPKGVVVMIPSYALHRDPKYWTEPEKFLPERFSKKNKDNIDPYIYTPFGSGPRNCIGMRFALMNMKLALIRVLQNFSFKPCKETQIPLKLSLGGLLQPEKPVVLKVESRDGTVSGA
T1 sequence (P48775 whole entry): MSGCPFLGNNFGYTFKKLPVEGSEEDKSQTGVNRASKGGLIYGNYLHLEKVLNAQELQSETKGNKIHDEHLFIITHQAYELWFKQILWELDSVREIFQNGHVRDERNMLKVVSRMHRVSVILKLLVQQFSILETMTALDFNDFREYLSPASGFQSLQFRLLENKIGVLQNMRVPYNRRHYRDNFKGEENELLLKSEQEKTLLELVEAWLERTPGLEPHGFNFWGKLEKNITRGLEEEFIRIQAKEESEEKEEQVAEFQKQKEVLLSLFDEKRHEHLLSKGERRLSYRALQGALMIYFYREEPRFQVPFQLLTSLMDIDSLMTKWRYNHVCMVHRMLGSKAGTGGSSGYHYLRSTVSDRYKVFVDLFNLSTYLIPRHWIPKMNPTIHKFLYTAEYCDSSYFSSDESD
T2 sequence (P48775 whole entry): as above

Regarding `CC(O)C(C)NC(=O)c1ccc(-c2c[nH]c3cc(F)ccc23)cc1` (centres unmarked) [Example 21, 4-(6-Fluoro-1H-indol-3-yl)-N-(2-hydroxy-1-methyl-propyl)benzamide], the IC50 on Recombinant TDO was < 1000 nM; on CYP2D6, > 10000 nM; at CYP3A4, > 10000 nM; in assay [1] it was ≤ 200 nM.
`CN1CCCC(NC(=O)c2ccc(-c3c[nH]c4cc(F)ccc34)cc2)C1` (centres unmarked) [Example 25, 4-(6-Fluoro-1H-indol-3-yl)-N-(1-methyl-3-piperidyl)benzamide]: the IC50 on Recombinant TDO is < 1000 nM; against CYP2D6, > 10000 nM; at CYP3A4, > 10000 nM; in assay [1], ≤ 200 nM.
Turning to `NS(=O)(=O)N1CCCC(NC(=O)c2ccc(-c3c[nH]c4cc(F)ccc34)cc2)C1` (centres unmarked) [Example 132, 4-(6-Fluoro-1H-indol-3-yl)-N-(1-sulfamoyl-3-piperidyl)benzamide], the IC50 was 1000 to 5000 nM at Recombinant TDO; > 10000 nM against CYP2D6; > 10000 nM against CYP3A4; ≤ 500 nM and 200 to 500 nM in assay [1].
As to `O=C(NCCC(F)(F)F)c1ccc(-c2c[nH]c3cc(F)ccc23)cc1` [Example 134, 4-(6-Fluoro-1H-indol-3-yl)-N-(3,3,3-trifluoropropyl)benzamide], the IC50 on Recombinant TDO is 1000 to 5000 nM; against CYP2D6, > 10000 nM; against CYP3A4 it was > 10000 nM; in assay [1], ≤ 200 nM.
In the case of `CN(C)CCCNC(=O)c1c(F)cc(-c2c[nH]c3cc(F)ccc23)cc1F` [Example 59, N-[3-(dimethylamino)propyl]-2,6-difluoro-4-(6-fluoro-1H-indol-3-yl)benzamide], the IC50 on Recombinant TDO is < 1000 nM; against CYP2D6, > 10000 nM; against CYP3A4, > 10000 nM; in assay [1], ≤ 500 nM and 200 to 500 nM.
In the case of `O=C(NC[C@H]1CCCNC1)c1ccc(-c2c[nH]c3cc(F)ccc23)cc1` [Example 94, 4-(6-Fluoro-1H-indol-3-yl)-N-[[(3S)-3-piperidyl]methyl]benzamide], the IC50 on Recombinant TDO is < 1000 nM; against CYP2D6 it was > 10000 nM; on CYP3A4, 5000 to 10000 nM; in assay [1], ≤ 500 nM and 200 to 500 nM.
With `C[C@H](CO)NC(=O)c1ccc(-c2c[nH]c3cc(F)ccc23)c(F)c1` [Example 117, 3-Fluoro-4-(6-fluoro-1H-indol-3-yl)-N-[(1R)-2-hydroxy-1-methyl-ethyl]benzamide], the IC50 at Recombinant TDO was < 1000 nM; against CYP2D6, 5000 to 10000 nM; against CYP3A4 it was 5000 to 10000 nM; in assay [1] it was ≤ 500 nM and 200 to 500 nM.
On to `O=C(N[C@@H]1CCCNC1)c1ccc(-c2c[nH]c3cc(F)ccc23)cc1` [Example 36, 4-(6-Fluoro-1H-indol-3-yl)-N-[(3R)-3-piperidyl]benzamide], for which the IC50 was < 1000 nM at Recombinant TDO; > 10000 nM against CYP2D6; > 10000 nM on CYP3A4; ≤ 500 nM and 200 to 500 nM in assay [1].
For `O=C(N[C@H]1CCCNC1)c1ccc(-c2c[nH]c3cc(F)ccc23)cc1Cl` [Example 55, 2-Chloro-4-(6-fluoro-1H-indol-3-yl)-N-[(3S)-3-piperidyl]benzamide], the IC50 was < 1000 nM on Recombinant TDO, > 10000 nM at CYP2D6, 5000 to 10000 nM at CYP3A4 and ≤ 200 nM in assay [1].
For `O=C(N[C@H]1CCCNC1)c1ccc(-c2c[nH]c3cc(F)ccc23)cc1` [Example 19, 4-(6-Fluoro-1H-indol-3-yl)-N-[(3S)-3-piperidyl]benzamide], the IC50 on Recombinant TDO was < 1000 nM; against CYP2D6, > 10000 nM; against CYP3A4 it was > 10000 nM; in assay [1] it was ≤ 200 nM.
For the compound `CN1CCN(CCCNC(=O)c2ccc(-c3c[nH]c4cc(F)ccc34)cc2Cl)CC1` [Example 72, 2-Chloro-4-(6-fluoro-1H-indol-3-yl)-N-[3-(4-methylpiperazin-1-yl)propyl]benzamide], the IC50 on Recombinant TDO was < 1000 nM; on CYP2D6, 5000 to 10000 nM; at CYP3A4, 5000 to 10000 nM; in assay [1], ≤ 200 nM.

In general, IC50 refers to the concentration at which inhibition is half-maximal.

The values above are taken from patent US10689343B2, “Inhibitors of tryptophan 2,3-dioxygenase” (NETHERLANDS TRANSLATIONAL RESEARCH CENTER B.V., priority 2016, dated 2020).
